The record followed here is paper PMC10303271, “Synthesis and Receptor Binding Studies of α5 GABAAR Selective Novel Imidazodiazepines Targeted for Psychiatric and Cognitive Disorders” (Molecules, 2023).

The target in one assay is T1, MOR (Homo sapiens, UniProt P35372).
T1 construct: purchased NIMH Psychoactive Drug Screening Program (PDSP)
Kind of assay: PDSP radioligand binding at MOR. As to conditions: 1.5 h. The text has this: Opioid receptors are a family of inhibitory G-coupled protein receptors where opioids act as the ligand. The kappa opioid receptors (KOR), µ and δ opioid receptors (MOR and DOR), and nociception opioid receptor (NOP) fall under the family of opioids receptors. It has been reported that oxadiazole imidazodiazepines can mediate analgesic and anti-inflammatory properties mediated also by the κ opioid receptor (KOR). The binding at KOR is usually silent. The affinities of the test compounds for KOR, DOR, and MOR were determined using radioligand binding assays at a screening concentration of 10,000 nM in collaboration with the National Institute of Mental Health’s Psychoactive Drug Screening Program (PDSP), as mentioned before. Concentration-dependent experiments were conducted to determine Ki values for the compounds that exceeded more than 50% radioligand displacement in primary binding assays.
(§1) The NIMH PDSP assay protocol book [https://kidbdev.med.unc.edu/databases/PDSP%20Protocols%20II%202013-03-28.pdf accessed on 23 April 2023]. describes the protocols for primary and secondary radio-ligand binding assays. These assays were carried out in a final volume of 125 µL per well in the appropriate binding buffer.
(§2) The binding of a ligand to a receptor, ion channel, or transporter was determined in the […] of 10 µM of the appropriate reference compound. […] Plates were incubated in the dark for 90 min at rt, and the reactions were stopped by vacuum filtration onto 0.3% polyethyleneimine (PEI) soaked 96-well filter mats using a 96-well Filtermateharvester. This was followed by three washes with cold PBS buffer. Radioactivity was then counted on a Microbeta counter. Nonlinear regression was used to analyze the data with N = 6 replicates.

A further assay addresses T2, Alpha1A (Homo sapiens, UniProt P35348).
T2 construct: purchased NIMH Psychoactive Drug Screening Program (PDSP)
T2 sequence (P35348 1-466): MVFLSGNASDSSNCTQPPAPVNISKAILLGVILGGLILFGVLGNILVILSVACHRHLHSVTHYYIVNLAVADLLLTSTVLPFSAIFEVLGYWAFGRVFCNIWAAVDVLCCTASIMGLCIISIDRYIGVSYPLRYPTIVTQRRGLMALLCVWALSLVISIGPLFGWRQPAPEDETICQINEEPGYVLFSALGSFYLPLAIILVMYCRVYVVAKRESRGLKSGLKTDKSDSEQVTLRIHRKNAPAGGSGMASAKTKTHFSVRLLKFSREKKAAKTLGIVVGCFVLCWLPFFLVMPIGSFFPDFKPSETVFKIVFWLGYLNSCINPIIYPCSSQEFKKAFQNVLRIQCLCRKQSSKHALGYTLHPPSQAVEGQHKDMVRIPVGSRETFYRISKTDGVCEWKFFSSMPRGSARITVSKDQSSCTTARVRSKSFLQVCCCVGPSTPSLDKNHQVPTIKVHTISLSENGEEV
Kind of assay: PDSP primary binding Alpha1A. The note with it: 1.5 h; primary binding, 10,000 nM; last figure of the line = mean of the 4 before it; read-out: Alpha1A, PDSP raw data, mean. As for the experimental part:
(§3) To determine if any off-target receptor-binding effects are present, all the novel ligands were sent to the National Institute of Mental Health (NIMH), Psychoactive Drug Screening Program (PDSP). The ligands were screened over a panel of 47 receptors, ion channels, and transporters to determine any other possible interactions with […]. The hERG-binding was also determined. […] No binding of the test compounds to calcium channels was observed. […] It is necessary to screen the compounds for hERG-binding during the early process of drug discovery. The unintentional binding of many drugs to hERG can cause blockade of hERG K+ channels in the heart, which can cause many side effects including cardiac arrhythmias and sudden death. […] All of the α5 imidazodiazepines were tested for hERG-binding.
as §1, §2

In a further assay the target is T3, D4 (Homo sapiens, UniProt P21917).
T3 construct: purchased NIMH Psychoactive Drug Screening Program (PDSP)
T3 sequence (P21917 1-419): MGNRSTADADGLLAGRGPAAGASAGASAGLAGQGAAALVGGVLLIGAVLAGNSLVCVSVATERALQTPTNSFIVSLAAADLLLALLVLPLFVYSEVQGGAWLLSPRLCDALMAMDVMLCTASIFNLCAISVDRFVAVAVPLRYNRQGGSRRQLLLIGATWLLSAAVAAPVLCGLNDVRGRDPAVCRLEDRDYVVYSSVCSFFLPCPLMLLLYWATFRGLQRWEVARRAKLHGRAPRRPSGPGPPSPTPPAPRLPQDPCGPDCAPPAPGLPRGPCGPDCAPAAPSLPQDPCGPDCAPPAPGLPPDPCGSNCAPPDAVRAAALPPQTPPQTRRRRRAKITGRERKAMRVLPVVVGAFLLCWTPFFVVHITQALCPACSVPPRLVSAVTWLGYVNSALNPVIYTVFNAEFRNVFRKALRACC
Kind of assay: PDSP primary binding D4. As to conditions: 1.5 h; primary binding, 10,000 nM; last figure of the line = mean of the 4 before it; read-out: D4, PDSP raw data, mean. As for the experimental part:
as §3, §1, §2

The next assay addresses T4, H1 (Homo sapiens, UniProt P35367).
T4 construct: purchased NIMH Psychoactive Drug Screening Program (PDSP)
Kind of assay: PDSP primary binding H1. As to conditions: primary binding, 10,000 nM; last figure of the line = mean of the 4 before it; read-out: H1, PDSP raw data, mean. As for the experimental part: as §3, §1, §2

The target of a further assay is T5, H4 (Homo sapiens, UniProt Q9H3N8).
T5 construct: purchased NIMH Psychoactive Drug Screening Program (PDSP)
T5 sequence (Q9H3N8 whole entry): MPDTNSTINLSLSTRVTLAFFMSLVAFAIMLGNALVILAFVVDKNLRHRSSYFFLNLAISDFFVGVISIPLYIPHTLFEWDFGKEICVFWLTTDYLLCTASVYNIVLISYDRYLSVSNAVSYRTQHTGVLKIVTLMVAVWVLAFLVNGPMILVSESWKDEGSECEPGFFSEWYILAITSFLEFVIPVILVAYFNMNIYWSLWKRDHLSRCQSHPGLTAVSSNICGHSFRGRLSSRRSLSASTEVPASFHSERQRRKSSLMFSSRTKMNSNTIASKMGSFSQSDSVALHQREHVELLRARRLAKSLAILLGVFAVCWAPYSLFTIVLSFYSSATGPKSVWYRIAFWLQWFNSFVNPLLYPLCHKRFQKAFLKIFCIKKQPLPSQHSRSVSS
Kind of assay: PDSP primary binding H4. The note with it: primary binding, 10,000 nM; last figure of the line = mean of the 4 before it; read-out: H4, PDSP raw data, mean. As for the experimental part: as §3, §1, §2

Another assay has as its system Sigma 2. Kind of assay: PDSP primary binding Sigma 2. The note with it: primary binding, 10,000 nM; last figure of the line = mean of the 4 before it. The method, then: as §3, §1, §2
A further assay has as its system NMDA. Kind of assay: PDSP primary binding NMDA. The note with it: primary binding, 10,000 nM; last figure of the line = mean of the 4 before it. The method, then: as §3, §1, §2
The target of another assay is T6, HCA2 (Homo sapiens, UniProt Q8TDS4).
T6 construct: purchased NIMH Psychoactive Drug Screening Program (PDSP)
T6 sequence (Q8TDS4 whole entry): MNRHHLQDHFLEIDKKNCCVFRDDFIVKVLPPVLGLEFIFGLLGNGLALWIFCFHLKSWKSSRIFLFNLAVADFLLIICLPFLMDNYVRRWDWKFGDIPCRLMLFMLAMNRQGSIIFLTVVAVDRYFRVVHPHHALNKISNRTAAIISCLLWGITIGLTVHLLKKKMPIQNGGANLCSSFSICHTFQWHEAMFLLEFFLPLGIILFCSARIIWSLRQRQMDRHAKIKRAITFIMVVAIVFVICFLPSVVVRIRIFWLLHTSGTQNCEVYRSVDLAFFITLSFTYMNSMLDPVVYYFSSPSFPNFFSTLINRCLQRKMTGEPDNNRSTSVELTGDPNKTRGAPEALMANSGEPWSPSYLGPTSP
Kind of assay: PDSP primary binding HCA2. The note with it: primary binding, 10,000 nM; last figure of the line = mean of the 4 before it; read-out: HCA2, PDSP raw data, mean. The method, then:
as §3, §1, §2

In the next assay the target is T7, Alpha2Beta2 (Rattus norvegicus, UniProt P12389+P12390).
T7 construct: purchased NIMH Psychoactive Drug Screening Program (PDSP)
T7 sequence (P12389 28-511): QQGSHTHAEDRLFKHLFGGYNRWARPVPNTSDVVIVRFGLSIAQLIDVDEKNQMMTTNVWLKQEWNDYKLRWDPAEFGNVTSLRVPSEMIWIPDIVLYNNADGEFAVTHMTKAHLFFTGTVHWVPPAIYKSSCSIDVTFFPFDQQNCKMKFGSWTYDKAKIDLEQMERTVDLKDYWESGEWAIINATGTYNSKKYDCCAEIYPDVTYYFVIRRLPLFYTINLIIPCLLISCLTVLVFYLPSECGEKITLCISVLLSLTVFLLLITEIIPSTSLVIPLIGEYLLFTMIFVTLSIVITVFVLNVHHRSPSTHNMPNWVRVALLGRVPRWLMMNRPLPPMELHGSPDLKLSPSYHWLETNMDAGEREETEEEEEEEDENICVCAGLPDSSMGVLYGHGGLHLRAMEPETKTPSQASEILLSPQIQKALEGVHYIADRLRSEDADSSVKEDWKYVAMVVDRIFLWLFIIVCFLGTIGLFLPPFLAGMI
T7 sequence (P12390 25-500): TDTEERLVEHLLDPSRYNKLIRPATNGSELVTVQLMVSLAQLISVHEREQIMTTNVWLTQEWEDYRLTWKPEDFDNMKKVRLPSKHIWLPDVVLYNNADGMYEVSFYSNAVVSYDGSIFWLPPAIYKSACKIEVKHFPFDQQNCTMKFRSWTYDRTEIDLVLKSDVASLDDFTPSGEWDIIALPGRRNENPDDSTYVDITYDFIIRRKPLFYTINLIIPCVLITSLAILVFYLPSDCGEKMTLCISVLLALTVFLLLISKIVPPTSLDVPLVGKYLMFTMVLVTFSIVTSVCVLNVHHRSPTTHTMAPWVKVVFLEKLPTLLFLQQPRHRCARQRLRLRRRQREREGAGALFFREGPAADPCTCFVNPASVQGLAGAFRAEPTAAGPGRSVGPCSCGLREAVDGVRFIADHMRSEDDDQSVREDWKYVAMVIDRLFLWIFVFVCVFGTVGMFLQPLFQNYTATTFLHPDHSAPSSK
Kind of assay: PDSP primary binding Alpha2Beta2. The note with it: primary binding, 10,000 nM; last figure of the line = mean of the 4 before it; read-out: Alpha2Beta2, PDSP raw data, mean. As for the experimental part:
as §3, §1, §2

Another assay addresses T8, Alpha3Beta2 (Rattus norvegicus, UniProt P04757+P12390).
T8 construct: purchased NIMH Psychoactive Drug Screening Program (PDSP)
Kind of assay: PDSP primary binding Alpha3Beta2. The note with it: primary binding, 10,000 nM; last figure of the line = mean of the 4 before it; read-out: Alpha3Beta2, PDSP raw data, mean. As for the experimental part: as §3, §1, §2

The next assay concerns the target T9, Alpha4Beta2 (Rattus norvegicus, UniProt P09483+P12390).
T9 construct: purchased NIMH Psychoactive Drug Screening Program (PDSP)
Kind of assay: PDSP primary binding Alpha4Beta2. As to conditions: primary binding, 10,000 nM; last figure of the line = mean of the 4 before it; read-out: Alpha4Beta2, PDSP raw data, mean. As for the experimental part: as §3, §1, §2

Where [1] appears, read: at 10,000 nM, N = 5, [3H]-DAMGO 1.20 nM, read-out: Primary Binding %MOR.
Setting [2] is: primary binding, 10,000 nM, last figure of the line = mean of the 4 before it, read-out: MOR, PDSP raw data, mean.

Like-named read-outs stand apart in the source and are kept apart here.

T9 sequence (P09483 31-630): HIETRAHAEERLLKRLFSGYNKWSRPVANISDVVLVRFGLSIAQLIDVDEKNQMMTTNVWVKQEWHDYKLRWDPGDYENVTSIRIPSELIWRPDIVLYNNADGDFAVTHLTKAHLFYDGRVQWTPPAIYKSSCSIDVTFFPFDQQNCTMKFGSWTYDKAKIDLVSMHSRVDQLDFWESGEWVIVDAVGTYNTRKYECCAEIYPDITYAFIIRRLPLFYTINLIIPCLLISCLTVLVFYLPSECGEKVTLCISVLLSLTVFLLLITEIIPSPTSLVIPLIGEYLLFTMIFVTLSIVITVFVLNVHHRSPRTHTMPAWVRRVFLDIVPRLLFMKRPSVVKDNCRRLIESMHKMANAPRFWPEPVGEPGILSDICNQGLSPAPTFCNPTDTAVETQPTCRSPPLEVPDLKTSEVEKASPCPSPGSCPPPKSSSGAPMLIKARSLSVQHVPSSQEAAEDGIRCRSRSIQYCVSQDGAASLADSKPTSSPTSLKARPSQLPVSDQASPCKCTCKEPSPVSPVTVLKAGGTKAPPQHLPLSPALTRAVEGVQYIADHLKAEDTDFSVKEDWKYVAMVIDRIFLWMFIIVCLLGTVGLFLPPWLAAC
T9 sequence (P12390 25-500): as the sequence (P12390 25-500) above
T1 sequence (P35372 whole entry): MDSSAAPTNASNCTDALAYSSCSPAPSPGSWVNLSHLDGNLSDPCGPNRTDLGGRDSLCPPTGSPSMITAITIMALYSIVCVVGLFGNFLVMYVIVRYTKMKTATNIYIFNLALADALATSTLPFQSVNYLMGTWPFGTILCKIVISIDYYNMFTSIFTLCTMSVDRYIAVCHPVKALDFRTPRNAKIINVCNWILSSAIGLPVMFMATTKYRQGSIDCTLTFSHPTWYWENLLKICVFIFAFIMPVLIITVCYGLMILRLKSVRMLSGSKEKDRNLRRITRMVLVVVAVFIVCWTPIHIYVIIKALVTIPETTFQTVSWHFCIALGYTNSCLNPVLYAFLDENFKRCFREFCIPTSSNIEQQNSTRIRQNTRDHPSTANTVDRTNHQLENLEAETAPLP
T8 sequence (P04757 26-499): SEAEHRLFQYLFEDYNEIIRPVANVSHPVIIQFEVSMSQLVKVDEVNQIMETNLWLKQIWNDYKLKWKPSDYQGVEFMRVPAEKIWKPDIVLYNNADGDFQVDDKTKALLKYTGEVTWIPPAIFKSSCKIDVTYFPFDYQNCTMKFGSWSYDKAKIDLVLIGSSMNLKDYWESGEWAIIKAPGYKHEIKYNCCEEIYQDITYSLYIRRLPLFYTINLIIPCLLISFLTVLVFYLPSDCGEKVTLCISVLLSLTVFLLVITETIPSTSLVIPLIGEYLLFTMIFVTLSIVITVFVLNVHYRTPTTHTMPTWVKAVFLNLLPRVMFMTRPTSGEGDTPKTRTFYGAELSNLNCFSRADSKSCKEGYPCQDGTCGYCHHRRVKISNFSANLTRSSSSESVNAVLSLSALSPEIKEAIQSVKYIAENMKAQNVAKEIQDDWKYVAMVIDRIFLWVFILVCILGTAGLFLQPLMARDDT
T8 sequence (P12390 25-500): as the sequence (P12390 25-500) above
T4 sequence (P35367 whole entry): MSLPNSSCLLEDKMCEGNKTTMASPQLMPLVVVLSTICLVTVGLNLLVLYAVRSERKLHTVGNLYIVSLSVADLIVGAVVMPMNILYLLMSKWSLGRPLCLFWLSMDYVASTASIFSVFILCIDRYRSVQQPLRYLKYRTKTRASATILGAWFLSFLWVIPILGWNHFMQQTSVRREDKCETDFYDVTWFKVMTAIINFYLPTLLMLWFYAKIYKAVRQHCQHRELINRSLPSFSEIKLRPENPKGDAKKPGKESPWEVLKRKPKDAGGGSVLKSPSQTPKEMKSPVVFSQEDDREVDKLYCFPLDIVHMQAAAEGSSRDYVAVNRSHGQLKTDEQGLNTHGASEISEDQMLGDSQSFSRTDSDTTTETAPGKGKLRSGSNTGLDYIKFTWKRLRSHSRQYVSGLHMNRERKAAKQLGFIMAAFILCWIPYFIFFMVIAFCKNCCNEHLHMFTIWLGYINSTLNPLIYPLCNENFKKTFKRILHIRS

Take `C[C@H]1N=C(c2ccccc2F)c2cc(-c3ccccc3)ccc2-n2cnc(C(=O)N(C)C)c21` [Compound 5, (R)-6-(2′-Fluorophenyl)-N,N,4-trimethyl-8-phenyl-4H-benzo[f]imidazo[1,5-a][1,4]diazepine-3-carboxamide]: the inhibition at 10 µM on MOR (setting [1]) is -11.2 ± 5.72%; at MOR (setting [2]), -11.2%; at Alpha1A it was -4.47%; on D4, -4.45%; at H1, -10.4%; on H4 it was 0.9%. Besides, the inhibition at 10 µM is -9.82% at HCA2, -5.95% at Alpha2Beta2, 2.14% at Alpha3Beta2 and -1.65% at Alpha4Beta2. In addition, in the assay on Sigma 2, the “Sigma 2, PDSP raw data, mean” value is listed as 43.63%. In addition, the “NMDA, PDSP raw data, mean” value with NMDA worked out at 43.17%.

For the molecule `C#Cc1ccc2c(c1)C(c1ccccc1Cl)=N[C@H](C)c1c(C(=O)NC)ncn1-2` [Compound 21, (R)-6-(2′-Chlorophenyl)-8-ethynyl-N,4-dimethyl-4H-benzo[f]imidazo[1,5-a][1,4]diazepine-3-carboxamide], the inhibition at 10 µM on MOR (setting [1]) is -3.57 ± 7.68%; on MOR (setting [2]), -3.57%; at Alpha1A it was -5.44%; on D4 it was 2.12%; on H1, -9.7%; at H4, -4.41%. Also, the inhibition at 10 µM on HCA2 stood at 35.7%; at Alpha2Beta2, 3.88%; at Alpha3Beta2 it was 3.21%; at Alpha4Beta2, 4.88%. Also, in the assay on Sigma 2, the “Sigma 2, PDSP raw data, mean” value amounted to 1.04%. The “NMDA, PDSP raw data, mean” value in the assay on NMDA was determined as 77.15%.

On to `C#Cc1ccc2c(c1)C(c1ccccn1)=N[C@@H](C)c1c(C(=O)NC)ncn1-2` [Compound 23, (S)-8-Ethynyl-N,4-dimethyl-6-(pyridin-2′-yl)-4H-benzo[f]imidazo[1,5-a][1,4]diazepine-3-carboxamide], for which the inhibition at 10 µM is 5.24 ± 10.7% at MOR (setting [1]); 5.24% on MOR (setting [2]); -5.28% on Alpha1A; 3.79% on D4; -2.54% at H1; -16.8% at H4. Moreover, the inhibition at 10 µM was 15.2% at HCA2, -3.67% at Alpha2Beta2, 7.13% on Alpha3Beta2 and -4.27% at Alpha4Beta2. In addition, the “Sigma 2, PDSP raw data, mean” value with Sigma 2 is given as 8.85%. Moreover, the “NMDA, PDSP raw data, mean” value with NMDA was 89.17%.

For the molecule `C#Cc1ccc2c(c1)C(c1ccccc1Cl)=N[C@H](C)c1c(C(=O)N(C)CC)ncn1-2` [Compound 29], the inhibition at 10 µM at MOR (setting [1]) was 7.31 ± 9.54%; on MOR (setting [2]), 7.31%; at Alpha1A, 4.97%; at D4 it was 1.36%; on H1, -1.99%; at H4, -21.5%. In addition, the inhibition at 10 µM was -26.3% on HCA2, -2.89% on Alpha2Beta2, 3.52% at Alpha3Beta2 and -1.16% on Alpha4Beta2. Besides, the “Sigma 2, PDSP raw data, mean” value with Sigma 2 came out at 13.69%. In the assay on NMDA, the “NMDA, PDSP raw data, mean” value worked out at 98.03%.

In the case of `C#Cc1ccc2c(c1)C(c1ccccn1)=N[C@@H](C)c1c(C(=O)N(C)C)ncn1-2` [Compound 31, (S)-8-Ethynyl-N,N,4-trimethyl-6-(pyridin-2′-yl)-4H-benzo[f]imidazo[1,5-a][1,4]diazepine-3-carboxamide], the inhibition at 10 µM on MOR (setting [1]) is 4.55 ± 12.5%; at MOR (setting [2]) it was 4.55%; on Alpha1A it was -10.5%; at D4 it was -0.38%; on H1 it was -7.38%; at H4, -12.6%. Further, the inhibition at 10 µM on HCA2 is 20.8%; at Alpha2Beta2, -2.25%; at Alpha3Beta2, 3.57%; on Alpha4Beta2, -0.84%. The “Sigma 2, PDSP raw data, mean” value with Sigma 2 was -12.63%. The “NMDA, PDSP raw data, mean” value in the assay on NMDA is on record as 17.3%.

Regarding `C#Cc1ccc2c(c1)C(c1ccccc1F)=N[C@H](C)c1c(C(=S)N(C)C)ncn1-2` [Compound 33, (R)-8-Ethynyl-6-(2′-fluorophenyl)-N,N,4-trimethyl-4H-benzo[f]imidazo[1,5-a][1,4]diazepine-3-carbothioamide], the inhibition at 10 µM at MOR (setting [1]) was -2.4 ± 5.72%; at MOR (setting [2]), -11.2%; at Alpha1A, -4.47%; at D4, -4.45%; at H1 it was -10.4%; at H4, 0.9%. Besides, the inhibition at 10 µM was -9.82% at HCA2, -5.95% on Alpha2Beta2, 2.14% at Alpha3Beta2 and -1.65% at Alpha4Beta2. Besides, the “Sigma 2, PDSP raw data, mean” value with Sigma 2 was determined as 43.63%. In addition, the “NMDA, PDSP raw data, mean” value with NMDA worked out at 43.17%.

For `CCc1noc(-c2ncn3c2[C@@H](C)N=C(c2ccccc2F)c2cc(-c4ccccc4)ccc2-3)n1` [Compound 35, (R)-3-Ethyl-5-(6-(2′-fluorophenyl)-4-methyl-8-phenyl-4H-benzo[f]imidazo[1,5-a][1,4]diazepin-3-yl)-1,2,4-oxadiazole], the inhibition at 10 µM at MOR (setting [1]) was determined as 14.8 ± 6.32%; on MOR (setting [2]) it was 14.8%; on Alpha1A it was 20.8%; on D4, 6.05%; at H1 it was 10.5%; on H4 it was 54.7%. Further, the inhibition at 10 µM at HCA2 was -18.7%; on Alpha2Beta2, 4.18%; at Alpha3Beta2, 5.43%; on Alpha4Beta2 it was 0.7%. The “Sigma 2, PDSP raw data, mean” value in the assay on Sigma 2 was 85.36%. Moreover, in the assay with NMDA, the “NMDA, PDSP raw data, mean” value came to 37.76%.
